Experimental data: patent US20240269139A1, “COMPOUNDS FOR TARGETED PROTEIN DEGRADATION OF KINASES” (DANA-FARBER CANCER INSTITUTE, INC., priority 2020, published 2024)

Target: protein kinases (human kinome)
Assay type: cell-based
Settings: for Kinase hits: kinases significantly downregulated vs DMSO (fold change cutoff −1.25, P-value<0.01), ≤8 h, 0.1-5 μM degrader, 7 cell lines; for Total no. kinase hits: number of degraded kinases per library compound; for kinases the bifunctional compound degrades: as stated for the structure in the embodiments; for logFC: BTK (Q06187-2), experiment wp055; for logFC of BTK (Q06187-2): Experiment wp055
Description: Although development of targeted protein degraders requires a POI binder, among already-liganded proteins such as kinases, it was hypothesized that different targets would have a different propensity for current approaches to degrader-mediated destruction, which was termed ‘degradability’. […] It was rationalized that the probability of identifying the same kinase as a false positive in multiple treatments is low, therefore this analysis served to also assess the robustness of our data and subsequent interpretations. […] Overall, 62 protein kinases were degraded in more than 10 independent treatments, and remarkably, 9 of these (CDK4, AURKA, FER, WEE1, BLK. LIMK2, CDK6, GAK, LIMK1) were each degraded in at least 40 of the 154 independent treatments, emphasizing their predisposition to induced degradation (FIG. 1G; Appendix I).
Next, the frequency of degradation assessment was corrected for over-representation of molecules in the full dataset by omitting replicate profiling of compounds under different experimental conditions, to remove any bias. […] Unsurprisingly, the top degradable kinases mirror those from the previous analysis (CDK4, AURKA, FER, WEE1, BLK), confirming that in sufficiently large datasets, even with over-representation of certain molecules, frequency of degradation is a good measure of general tractability.

Structure (SMILES) | Kinase hits | Total no. kinase hits | kinases the bifunctional compound degrades | logFC | logFC of BTK (Q06187-2)
CC(=O)c1c(C)c2cnc(Nc3ccc(N4CCN(CCCCNC(=O)CNc5cccc6c5C(=O)N(C5CCC(=O)NC5=O)C6=O)CC4)cn3)nc2n(C2CCCC2)c1=O (stereo not drawn) [BSJ-01-147] | CDK4, CDK6, WEE1 | 3 |  |  | 
CC(=O)c1c(C)c2cnc(Nc3ccc(N4CCN(CCOCCOCCOCCNC(=O)COc5cccc6c5C(=O)N(C5CCC(=O)NC5=O)C6=O)CC4)cn3)nc2n(C2CCCC2)c1=O (stereo not drawn) [BSJ-03-123] | BCKDK, CDK4, CDK6, COQ8A, PDK1, PDK2, PDK3, WEE1 | 8 |  |  | 
CC(=O)c1c(C)c2cnc(Nc3ccc(N4CCN(CCCCNC(=O)COc5cccc6c5C(=O)N(C5CCC(=O)NC5=O)C6=O)CC4)cn3)nc2n(C2CCCC2)c1=O (stereo not drawn) [BSJ-03-204] | CDK4, CDK6, PDK1, WEE1 | 4 |  |  | 
CN(C)C(=O)c1cc2cnc(Nc3ccc(N4CCN(CCCCNC(=O)COc5cccc6c5C(=O)N(C5CCC(=O)NC5=O)C6=O)CC4)cn3)nc2n1C1CCCC1 (stereo not drawn) [BSJ-04-132] | BCKDK, CDK4, CDK6, COQ8A, PDK1, PDK2, PDK3, | 3 |  |  | 
O=C(COc1cccc2c1C(=O)N(C1CCC(=O)NC1=O)C2=O)NCCCCCCCN1CCc2cc(Nc3ncc(C4CC4)c(NCCCNC(=O)C4CCC4)n3)ccc2C1 (stereo not drawn) [BSJ-04-178] | AAK1, AURKA, AURKB, BMP2K, CDK10, CDK9, GAK, MARK2, MARK3, MARK4, SIK2, STKI7A, STK17B, SNRK, ULK1, WEE1 | 16 | AAK1, AURKA, AURKB. BMP2K, CDK10, CDK9, GAK, MARK2, MARK3, MARK4, SIK2, STK17A, STK17B, SNRK, ULK1, and WEE1 |  | 
Cc1ncsc1-c1ccc([C@H](C)NC(=O)[C@@H]2C[C@@H](O)CN2C(=O)[C@@H](NC(=O)CCCCCN2CCc3cc(Nc4ncc(C5CC5)c(NCCCNC(=O)C5CCC5)n4)ccc3C2)C(C)(C)C)cc1 [BSJ-05-026] | AAK1, GAK, MARK2, MARK3, MARK4, RPS6KB1, SIK2, SIK3, SNRK, STKI7A, STKI7B, ULK1, WEE1 | 13 |  |  | 
Cc1ccc(NC(=O)c2cccc(C(F)(F)F)c2)cc1N1Cc2cnc(Nc3ccc(N4CCN(CCCCCC(=O)N[C@H](C(=O)N5C[C@H](O)C[C@H]5C(=O)N[C@@H](C)c5ccc(-c6scnc6C)cc5)C(C)(C)C)CC4)nc3)nc2N(C)C1=O [DB1114, (2S,4R)-1-((S)-3,3-dimethyl-2-(6-(4-(5-((8-methyl-6-(2-methyl-5-(3-(trifluoromethyl)benzamido)phenyl)-7-oxo-5,6,7,8-tetrahydropyrimido[4,5-d]pyrimidin-2-yl)amino)pyridin-2-yl)piperazin-1-yl)hexanamido)butanoyl)-4-hydroxy-N—((S)-1-(4-(4-methylthiazol-5-yl)phenyl)ethyl)pyrrolidine-2-carboxamide] |  | 31 |  |  | 
Cc1ccc(NC(=O)c2cccc(C(C)(C)C#N)c2)cc1Nc1ccc2ncn(CCOCCOCCC(=O)N[C@H](C(=O)N3C[C@H](O)C[C@H]3C(=O)NCc3ccc(-c4scnc4C)cc3)C(C)(C)C)c(=O)c2c1 [DD-02-198] | MAPK14 | 1 | MAPK14 |  | 
CC(C)(C)c1nc(-c2cccc(NS(=O)(=O)c3c(F)cccc3F)c2F)c(-c2ccnc(NCCOCCNC(=O)CCOCCOCCNc3cccc4c3CN(C3CCC(=O)NC3=O)C4=O)n2)s1 (stereo not drawn) [DD-03-107] | BCKDK, COQ8A, LIMK1, PDK1, PDK2, PDK3 | 6 | BCKDK, COQ8A, LIMK1, PDK1, PDK2, and PDK3 |  | 
Nc1ncnc2c1c(-c1ccc(Oc3ccccc3)cc1)nn2[C@@H]1CCCN(C(=O)CCCN2CCN(CCNC(=O)CCOCCOCCNc3cccc4c3C(=O)N(C3CCC(=O)NC3=O)C4=O)CC2)C1 (stereo partly drawn) [DD-03-119] | ABL2, BLK, CSK, FYN, LCK, SRC, TEC | 3 | ABL2, BLK, CSK, FYN, LCK, SRC, and TEC |  | 
Cc1c(NC(=O)c2ccc(C(C)(C)C)cc2)cccc1-c1cn(C)c(=O)c(Nc2ccc(C(=O)N3CCN(CCCCCCNC(=O)CNc4cccc5c4C(=O)N(C4CCC(=O)NC4=O)C5=O)CC3)cc2)n1 (stereo not drawn) [DD-03-171] | BTK | 1 |  |  | 
Cc1c(NC(=O)c2ccc(C(C)(C)C)cc2)cccc1-c1cn(C)c(=O)c(Nc2ccc(C(=O)N3CCN(CCCCCCNC(=O)COc4cccc5c4C(=O)N(C4CCC(=O)NC4=O)C5=O)CC3)cc2)n1 (stereo not drawn) [DD-04-118] | BTK | 1 |  |  | 
Cc1c(NC(=O)c2ccc(C(C)(C)C)cc2)cccc1-c1cn(C)c(=O)c(Nc2ccc(C(=O)N3CCN(CCCCCCNC(=O)CNc4cccc5c4C(=O)N(C4CCC(=O)NC4=O)C5=O)CC3)cc2)n1 (stereo not drawn) [DD.03.171] |  |  |  | −3.077 | −3.077
Cc1c(NC(=O)c2ccc(C(C)(C)C)cc2)cccc1-c1cn(C)c(=O)c(Nc2ccc(C(=O)N3CCN(CCCCCCNC(=O)COc4cccc5c4C(=O)N(C4CCC(=O)NC4=O)C5=O)CC3)cc2)n1 (stereo not drawn) [DD.04.118] |  |  |  | −3.263 | −3.263
COc1cc(N2CCN(CCOCCOCCC(=O)N[C@H](C(=O)N3C[C@H](O)C[C@H]3C(=O)N[C@@H](C)c3ccc(-c4scnc4C)cc3)C(C)(C)C)CC2)ccc1Nc1ncc2c(n1)N(C)c1ccccc1C(=O)N2CC(F)(F)F [FMF-03-178-1] | BLK, CSK | 2 |  |  | 
O=C1CCC(N2C(=O)c3cccc(NCCOCCOCCOCCOCCC(=O)Nc4cccc(CN5CCC(NC(=O)c6[nH]ncc6NC(=O)c6c(Cl)cccc6Cl)CC5)c4)c3C2=O)C(=O)N1 (stereo not drawn) [FMF-04-147-1] | CDK11A, CDK9, CLK1, GSK3A, GSK3B, PIK3CG, SGK3 | 7 | CDK11A, CDK9, CLK1, GSK3A, GSK3B, PIK3CG, and SGK3 |  | 
Cc1ncsc1-c1ccc([C@H](C)NC(=O)[C@@H]2C[C@@H](O)CN2C(=O)[C@@H](NC(=O)CCOCCOCCN2CCN(c3ccc(Nc4ncc(Cl)c(Nc5ccccc5S(=O)(=O)C(C)C)n4)cc3)CC2)C(C)(C)C)cc1 [FMF-06-098-1, (2S,4R)-1-((S)-2-(3-(2-(2-(4-(4-((5-chloro-4-((2-(isopropylsulfonyl)phenyl)amino)pyrimidin-1320 2-yl)amino)phenyl)piperazin-I-yl)ethoxy)ethoxy)propanamido)-3,3-dimethylbutanoyl)-4-1321 hydroxy-N—((S)-1-(4-(4-methylthiazol-5-yl)phenyl)ethyl)pyrrolidine-2-carboxamide] | AAK1, ABL2, AURKA, AURKB, BUB1B, CDC7, CDK1, CDK12, CDK13, CDK2, CDK4, CDk6, CDK7, CDK9, CHEK1, CSNK1D, EPHA1, FER, FGFR1, GAK, IRAK4, ITK, LIMK2, MAP4K2, MAP4K3, MAPK6, MAPK7, MARK4, MELK, PKN3, PLK4, PRKAA1, PTK2, PTK6, RPS6KA4, SIK2, STK35, TNK2, UHMK1, ULK1, WEE1 | 42 | AAK1, ABL2, AURKA, AURKB, BUB1B, CDC7, CDK1, CDK12, CDK13, CDK2, CDK4, CDk6, CDK7, CDK9, CHEK1, CSNK1D. EPHA1, FER, FGFR1, GAK, IRAK4, ITK, LIMK2, MAP4K2, MAP4K3, MAPK6, MAPK7, MARK4, MELK, PKN3, PLK4, PRKAA1, PTK2, PTK6, RPS6KA4, SIK2, STK35, TNK2. UHMK1, ULK1, and WEE1 |  | 
O=C(COc1cccc2c1C(=O)N(C1CCC(=O)NC1=O)C2=O)NCCCCCCCC(=O)NC1(c2ccc(-c3nc4ccn5c(=O)[nH]nc5c4cc3-c3ccccc3)cc2)CCC1 (stereo not drawn) [INY-01-140-1] | PDK1, PDK2, PDK3 | 3 | PDK1, PDK2, and PDK3 |  | 
C[C@@H]1C[C@@H](O)c2ncnc(N3CCN(C(=O)[C@H](CNCCCCCCCCNC(=O)COc4cccc5c4C(=O)N(C4CCC(=O)NC4=O)C5=O)c4ccc(Cl)cc4)CC3)c21 (stereo partly drawn) [INY-02-164] | AKT1, AKT2, AKT3, BCKDK, PDK1 | 5 |  |  | 
C[C@@H]1C[C@@H](O)c2ncnc(N3CCN(C(=O)[C@H](CNCCCCCCCCCCc4cccc5c4C(=O)N(C4CCC(=O)NC4=O)C5=O)c4ccc(Cl)cc4)CC3)c21 (stereo partly drawn) [INY-03-041-01] | AKT1, AKT2, AKT3, CDK4, MAPK6, STK17A | 6 |  |  | 
Cc1ncsc1-c1ccc([C@H](C)NC(=O)[C@@H]2C[C@@H](O)CN2C(=O)[C@@H](NC(=O)CCCCOc2ccccc2-c2ccc3nc(-c4cccnc4N)n(-c4ccc(C5(N)CCC5)cc4)c3n2)C(C)(C)C)cc1 [INY-04-125-01] | LATS1, STK17A | 2 | LATS1 and STK17A |  | 
Cc1cnc(Nc2ccc(N3CCN(CCOCCOCCNC(=O)COc4cccc5c4C(=O)N(C4CCC(=O)NC4=O)C5=O)CC3)cc2)nc1Nc1cccc(S(=O)(=O)NC(C)(C)C)c1 (stereo not drawn) [JWG-118] | AAK1, AURKA, BMP2K, GAK, WEE1 | 5 | AAK1, AURKA, BMP2K, GAK, and WEE1 |  | 
CS(=O)(=O)c1ccc(-c2cccn3nc(Nc4cccc(N5CCN(CCCCCCNC(=O)COc6cccc7c6C(=O)N(C6CCC(=O)NC6=O)C7=O)CC5)c4)nc23)cc1 (stereo not drawn) [JWG-120] | AAK1, AURKA | 2 | AAK1 and AURKA |  | 
Cc1cnc(Nc2ccc(N3CCN(CCOCCOCCC(=O)N[C@H](C(=O)N4C[C@H](O)C[C@H]4C(=O)N[C@@H](C)c4ccc(-c5scnc5C)cc4)C(C)(C)C)CC3)cc2)nc1Nc1cccc(S(=O)(=O)NC(C)(C)C)c1 [JWG-122] | AAK1, GAK | 2 | AAK1 and GAK |  | 
Cc1cnc(Nc2ccc(N3CCN(CCCCCCC(=O)N[C@H](C(=O)N4C[C@H](O)C[C@H]4C(=O)N[C@@H](C)c4ccc(-c5scnc5C)cc4)C(C)(C)C)CC3)cc2)nc1Nc1cccc(S(=O)(=O)NC(C)(C)C)c1 [JWG-123] | AAK1, CDK16, WEE1, GAK, MARK4, NEK9, RPS6KB1, SIK2, SIK3, SNRK, STKI7A, STK17B | 12 |  |  | 
